Results on 17 compounds are retold here after patent publication US8361765B2, “Enzymic method for the enantioselective reduction of keto compounds” (IEP GmbH, priority 2001, dated 2013).

What is called logP is a log measure of how a compound divides between an organic and an aqueous phase.

Each structure is given as a SMILES string.

Data set [1] relates to alcohol dehydrogenase from Lactobacillus minor. The experiment in a line: Spectrum of substrates. The format is biochemical. The following applies: 10 mM keto compound as substrate, 0.19 mM NADPH, pH 7.0; activity with ethyl 4-chloro-3-oxo-butanoate set to 100%. As to the method: Furthermore, substrates other than ethyl 4-chloro-3-oxo-butanoate were also used in the enzymic assay mixture. For this purpose, the following assay mixture was used: • 970 μl of triethanolamine buffer (100 mM, pH=7.0, 1 mM MgCl2 containing 10 mM keto compound) • 20 μl of NADPH (0.19 mM in assay mixture) • 10 μl of enzyme (1:100)
The activity determined with ethyl 4-chloro-3-oxo-butanoate was set to 100% and the enzyme activities of the other substrates were related to this value.

Data set [2] deals with L. minor alcohol dehydrogenase. The experiment in a line: Enzyme stability in organic solvents. The format is biochemical, Lactobacillus minor. The following applies: for Enzyme activity relative to starting value, t = 2 h / Enzyme activity relative to starting value, t = 8 h / Enzyme activity relative to starting value, t = 24 h / Enzyme activity relative to starting value, t = 48 h: room temperature; for action of the solvent on the alcohol dehydrogenase (in words): Table 7. As to the method:
The stability of the enzyme when contacted with organic solvents was studied by diluting L. minor alcohol dehydrogenase 1:100 in the solvent mixtures listed, followed by incubation at room temperature (for organic solvents not miscible with water, the dilution refers to the aqueous phase). Continuous mixing of both phases was ensured (shaker, 200 rpm). 10 μl of the enzyme solution were then used in the standard assay mixture. Here too, the starting value was set to 100% after dilution in the buffer (triethanolamine buffer 100 mM, pH=7.0, 1 mM MgCl2), with all other values being related to this value.

For data set [3] the following is noted: octanol/water; cited from earlier work.
[4] abbreviates: 20% solvent not miscible with water, two phases shaken 200 rpm.
Setting [5] is: 10% water-miscible solvent in buffer.
The mark [6] stands for this setting: 20% water-miscible solvent in buffer.

As for `COC(=O)CC(C)=O` [Methyl acetoacetate], the “Activity in % (n = 2)” value in data set [1] worked out at 120 ± 7.7%.

Consider `CCOC(C)=O` [ethyl acetate], for which, in data set [2] (setting [4]), the “Enzyme activity relative to starting value, t = 2 h” value was found to be 87%; the “Enzyme activity relative to starting value, t = 8 h” value was 50%; the “Enzyme activity relative to starting value, t = 24 h” value was 10%; the “Enzyme activity relative to starting value, t = 48 h” value turned out to be 8%.

With `CCOC(=O)CC(=O)CCl` [Ethyl 4-chloro-3-oxo-butanoate], the “Activity in % (n = 2)” value in data set [1] came out at 100%.

As for `CCCCCCCC` [octane], in data set [2] (setting [4]), the “Enzyme activity relative to starting value, t = 2 h” value amounted to 87%; the “Enzyme activity relative to starting value, t = 8 h” value is 47%; the “Enzyme activity relative to starting value, t = 24 h” value was found to be 2%; the “Enzyme activity relative to starting value, t = 48 h” value is given as 1%. In data set [2], the “action of the solvent on the alcohol dehydrogenase (in words)” value (“action of the solvent” below) was “do not exhibit this stabilizing action”.

As for `CCCCCC` [hexane], in data set [2] (setting [4]), the “Enzyme activity relative to starting value, t = 2 h” value was 80%; the “Enzyme activity relative to starting value, t = 8 h” value is 39%; the “Enzyme activity relative to starting value, t = 24 h” value came out at 2%; the “Enzyme activity relative to starting value, t = 48 h” value is 5%. In data set [2], the “action of the solvent” value is “do not exhibit this stabilizing action”.

With `CCCCC` [pentane], in data set [2] (setting [4]), the “Enzyme activity relative to starting value, t = 2 h” value amounted to 74%; the “Enzyme activity relative to starting value, t = 8 h” value is reported as 55%; the “Enzyme activity relative to starting value, t = 24 h” value was determined as 7%; the “Enzyme activity relative to starting value, t = 48 h” value amounted to 6%. Moreover, the “action of the solvent” value in data set [2] was “do not exhibit this stabilizing action”. In addition, the logP in data set [3] is given as 3.

With `COC(C)(C)C` [tert-butyl methyl ether], in data set [2] (setting [4]), the “Enzyme activity relative to starting value, t = 2 h” value was 67%; the “Enzyme activity relative to starting value, t = 8 h” value is 51%; the “Enzyme activity relative to starting value, t = 24 h” value was 38%; the “Enzyme activity relative to starting value, t = 48 h” value came out at 24%. For the same compound, the log partition coefficient (logP) in data set [3] is reported as 1.21.

On to `CCCCCCC` [heptane], for which, in data set [2] (setting [4]), the “Enzyme activity relative to starting value, t = 2 h” value is reported as 51%; the “Enzyme activity relative to starting value, t = 8 h” value is reported as 49%; the “Enzyme activity relative to starting value, t = 24 h” value is on record as 7%; the “Enzyme activity relative to starting value, t = 48 h” value amounted to 6%. Moreover, the “action of the solvent” value in data set [2] was “do not exhibit this stabilizing action”. Also, in data set [3], the lipophilicity (logP) is 4.

`OCC(O)CO` [glycerol]: in data set [2] (setting [5]), the “Enzyme activity relative to starting value, t = 2 h” value was 120%; the “Enzyme activity relative to starting value, t = 8 h” value came out at 64%; the “Enzyme activity relative to starting value, t = 24 h” value was found to be 62%; the “Enzyme activity relative to starting value, t = 48 h” value is reported as 28%. Also, in data set [2] (setting [6]), the “Enzyme activity relative to starting value, t = 2 h” value is 120%; the “Enzyme activity relative to starting value, t = 8 h” value is 100%; the “Enzyme activity relative to starting value, t = 24 h” value is given as 100%; the “Enzyme activity relative to starting value, t = 48 h” value is 104%. In data set [2], the “action of the solvent” value is reported as “activating and, respectively, stabilizing action”. In addition, the lipophilicity (logP) in data set [3] was −3.

With `CCOC(=O)C(C)=O` [Ethyl pyruvate], in data set [1], the “Activity in % (n = 2)” value is 192.3 ± 11.5%.

`CCOC(=O)C(=O)CCc1ccccc1` [Ethyl 2-oxo-4-phenylbutyrate]: the “Activity in % (n = 2)” value in data set [1] worked out at 62.7 ± 4.8%.

Regarding `C[S+](C)[O-]` [DMSO, dimethyl sulfoxide], in data set [2] (setting [5]), the “Enzyme activity relative to starting value, t = 2 h” value is recorded as 73%; the “Enzyme activity relative to starting value, t = 8 h” value amounted to 54%; the “Enzyme activity relative to starting value, t = 24 h” value is given as 60%; the “Enzyme activity relative to starting value, t = 48 h” value is reported as 40%. Also, in data set [2] (setting [6]), the “Enzyme activity relative to starting value, t = 2 h” value is on record as 73%; the “Enzyme activity relative to starting value, t = 8 h” value is reported as 54%; the “Enzyme activity relative to starting value, t = 24 h” value was 57%; the “Enzyme activity relative to starting value, t = 48 h” value is listed as 40%. Also, the “action of the solvent” value in data set [2] is recorded as “activating and, respectively, stabilizing action”.

As to `OC[C@@H](O)[C@@H](O)[C@H](O)[C@@H](O)CO` [sorbitol], in data set [2] (1M in buffer), the “Enzyme activity relative to starting value, t = 2 h” value was 93%; the “Enzyme activity relative to starting value, t = 8 h” value was found to be 74%; the “Enzyme activity relative to starting value, t = 24 h” value amounted to 60%; the “Enzyme activity relative to starting value, t = 48 h” value came to 6%. Moreover, the “action of the solvent” value in data set [2] is given as “activating and, respectively, stabilizing action”.

As for `CCCCCCC(C)=O` [2-Octanone], in data set [1], the “Activity in % (n = 2)” value came to 90.8 ± 1.2%.

In the case of `CCOCC` [diethyl ether], in data set [2] (setting [4]), the “Enzyme activity relative to starting value, t = 2 h” value was determined as 53%; the “Enzyme activity relative to starting value, t = 8 h” value worked out at 42%; the “Enzyme activity relative to starting value, t = 24 h” value was 37%; the “Enzyme activity relative to starting value, t = 48 h” value was found to be 23%. In addition, the logP in data set [3] is reported as 0.85.

Regarding `CC(C)OC(C)C` [diisopropyl ether], in data set [2] (setting [4]), the “Enzyme activity relative to starting value, t = 2 h” value stood at 100%; the “Enzyme activity relative to starting value, t = 8 h” value stood at 57%; the “Enzyme activity relative to starting value, t = 24 h” value was determined as 41%; the “Enzyme activity relative to starting value, t = 48 h” value amounted to 29%. Also, in data set [3], the log partition coefficient (logP) was 1.55.

On to `CC(C)O` [isopropanol], for which the “action of the solvent” value in data set [2] was “inactivating action”.
